In patent US9980943B2, “Methods of treating muscular dystrophy” (BOARD OF REGENTS OF THE NEVADA SYSTEM OF HIGHER EDUCATION, …, priority 2013, dated 2018):

What was measured:
Format in all cases: cell-based, mouse
[1] = system: α7 integrin (LacZ reporter in α7βgal+/− myoblasts); assay: Myoblast α7+/LacZ integrin FDG assay (Burkin assay in myoblasts, 96-well); details: α7+/LacZ myoblasts, 96-well
[2] = system: α7 integrin (LacZ reporter in α7+/LacZ myotubes); assay: Myotube α7 integrin FDG assay (Burkin assay in myotubes, 96-well); details: myotubes
[3] = system: β-galactosidase in CMV-LacZ C2C12 myotubes; assay: CMV-LacZ secondary screen in C2C12 myotubes (β-Gal stabilizing assay); details: for CMV-LACZ in Myotubes (β-galactosidase activity relative to DMSO): CMV-LacZ C2C12 myotubes, 96-well format; for CMV-LACZ in Myotubes, signal relative to DMSO: C2C12 CMV-LacZ myotubes, fold relative to DMSO
From the text: In order to determine compounds that acted to stabilize β-gal in myogenic cells, a CMV-LacZ C2C12 cell line was used in a secondary screen. The EGFP gene from the pEGFP (Clontech) vector was replaced by LACZ PCR product with digests of the vector/PCR product performed using EcoRI (NEB) and NotI (NEB) and ligated using T4 DNA Ligase (NEB) following standard procedures to produce the CMV-LACZ vector. The LACZ gene was generated by PCR from the pBK-RSV (Stratagene) vector using primers LACZ EcoRI F- and LACZ NotI R-. The CMV-LACZ vector was then digested with AfIII (NEB) to linearize the construct, which was then transfected in C2C12 myoblasts using Lipofectamine 2000 (Invitrogen) following the manufacturer's instructions. […] Clonal lines were selected and screened for βgal levels using the myoblast FDG assay.
The assays were used the original 96-well format and new dose-response curves for myoblasts (N=3-6 replicates for each data point), myotubes (N=3-6 replicates for data point), and CMV-LacZ secondary assay (N=2 replicates for each data point) using concentrations of 0.5 μM, 1 μM, 5 μM, 10 μM, 20 μM, and 40 μM (Tables 9-16).

| SMILES | Burkin Assay in Myoblasts, value relative to DMSO ([1]; 0.5 uM) | Burkin Assay in Myoblasts, value relative to DMSO ([1]; 1 uM) | Burkin Assay in Myoblasts, value relative to DMSO ([1]; 5 uM) | Burkin Assay in Myoblasts, value relative to DMSO ([1]; 10 uM) | Burkin Assay in Myoblasts, value relative to DMSO ([1]; 20 uM) | Burkin Assay in Myoblasts, value relative to DMSO ([1]; 40 uM) | Burkin Assay in Myotubes (signal relative to DMSO) ([2]; 0.5 uM) | Burkin Assay in Myotubes (signal relative to DMSO) ([2]; 1 uM) | Burkin Assay in Myotubes (signal relative to DMSO) ([2]; 5 uM) | Burkin Assay in Myotubes (signal relative to DMSO) ([2]; 10 uM) | Burkin Assay in Myotubes (signal relative to DMSO) ([2]; 20 uM) | Burkin Assay in Myotubes (signal relative to DMSO) ([2]; 40 uM) | CMV-LACZ in Myotubes (β-galactosidase activity relative to DMSO) ([3]; 5 uM) | CMV-LACZ in Myotubes (β-galactosidase activity relative to DMSO) ([3]; 10 uM) | CMV-LACZ in Myotubes (β-galactosidase activity relative to DMSO) ([3]; 20 uM) | CMV-LACZ in Myotubes (β-galactosidase activity relative to DMSO) ([3]; 40 uM) | other results |
| --- | --- | --- | --- | --- | --- | --- | --- | --- | --- | --- | --- | --- | --- | --- | --- | --- | --- |
| O=C(NCc1ccccc1)C(c1ccc(O)cc1)N(C(=O)Cn1nnc(-c2cccs2)n1)c1ccc2c(c1)OCCO2 (stereo not drawn) [MLS000123454-01] | 0.8934 | 0.8234 | 0.7862 | 0.8621 | 1.519 | 1.013 | 1.067 | 0.8963 | 1.047 | 1.083 | 0.6841 | 0.8852 | 0.9353 | 0.9323 | 0.8796 | 1.055 |  |
| Cc1cccc(OCc2nc(C#N)c(N3CCCC3)o2)c1 [MLS000332693-01] | 1.04 | 0.9937 | 1.068 | 1.095 | 0.895 | 0.9225 | 1.0441 | 0.9631 | 1.092 | 0.9798 | 0.9709 | 0.9252 | 1.244 | 0.9794 | 0.8804 | 0.9304 |  |
| Cc1ccccc1OCC(=O)Nc1nnc(-c2ccco2)s1 [MLS000333610-01] |  |  |  |  |  |  |  |  |  |  |  |  |  |  |  |  | Burkin Assay in Myoblasts, signal relative to DMSO ([1]; 0.5 uM): 0.8664; Burkin Assay in Myoblasts, signal relative to DMSO ([1]; 1 uM): 0.9253; Burkin Assay in Myoblasts, signal relative to DMSO ([1]; 5 uM): 1.048; Burkin Assay in Myoblasts, signal relative to DMSO ([1]; 10 uM): 0.9188; Burkin Assay in Myoblasts, signal relative to DMSO ([1]; 20 uM): 0.7975; Burkin Assay in Myoblasts, signal relative to DMSO ([1]; 40 uM): 0.7794; Burkin Assay in Myotubes, α7 integrin LacZ reporter signal relative to DMSO ([2]; 0.5 uM): 0.986; Burkin Assay in Myotubes, α7 integrin LacZ reporter signal relative to DMSO ([2]; 1 uM): 1.039; Burkin Assay in Myotubes, α7 integrin LacZ reporter signal relative to DMSO ([2]; 5 uM): 1.003; Burkin Assay in Myotubes, α7 integrin LacZ reporter signal relative to DMSO ([2]; 10 uM): 0.9932; Burkin Assay in Myotubes, α7 integrin LacZ reporter signal relative to DMSO ([2]; 20 uM): 0.8742; Burkin Assay in Myotubes, α7 integrin LacZ reporter signal relative to DMSO ([2]; 40 uM): 0.9096; CMV-LACZ in Myotubes, signal relative to DMSO ([3]; 5 uM): 0.832; CMV-LACZ in Myotubes, signal relative to DMSO ([3]; 10 uM): 0.7867; CMV-LACZ in Myotubes, signal relative to DMSO ([3]; 20 uM): 0.9429; CMV-LACZ in Myotubes, signal relative to DMSO ([3]; 40 uM): 0.9948 |
